Assays:
Format in all cases: physicochemical
[1] = Screening of salt derivative solubility in ethanol co-solvent
Source text: Solubility, of a drug salt derivative, to an appreciable extent, in solvents miscible with the propellant(s) provides a simple yet robust screening method.
The co-solvent used to screen derivative solubility and formulation approach was ethanol. […] A comprehensive list can be taken from texts such as the handbook of pharmaceutical excipients. Ethanol and water mixtures may be utilised. For solution aerosols a single phase is required when in the final formulation, but equally a suspension or emulsion may results and be utilised. As the model bronchodilator was a basic compound acids requisite for salt formation (from pKa values) were selected. […] The solvent necessary to facilitate dissolution is assumed to be of sufficient dielectric constant and an ideal solvent, although skilled practitioners will endeavor to try a range of solvents as formulation science is empirical. Other examples of suitable acids are acetate, benzenesulphonate, mesylate etc, and can be sought from any suitable text: Martindale 2005. […] Preferentially precipitated or solvated species may result from careful selection of reagents and forms of the active described. Preferentially precipitated or solvated compounds can be isolated either in bulk or in-situ for use.
Two non-limiting examples of use of the manufacture/ screening method are described below.

[2] = Cascade impactor particle size and deposition under controlled temperature and relative humidity
Source text: Formulations of salt derivatives whether prepared by the following method but any suitable method can be utilise. Plastic coated glass pMDI bottles (St Gobain, France) were weighed on a balance and tared after first undergoing a rinse with clean and dry compressed air. Drug was weighed accurately by difference in order to give an equivalent of 100mcg freebase as related to molecular mass of the salt and the same procedure repeated for absolute ethanol (Fisher scientific). A continuous […] on (Bespak, Kings Lynn, UK), according to manufacturers specifications and the bottle then sonicated (Decon FS 3006) for several minutes to induce complete dissolution of the drug. The bottle was then dried and once again tared on the balance. HFA 134(a) was subsequently charged through the valve using a Pamasol 2002 hand […] (DH Industries, Laindon, Essex, UK). The final formulation preparation was sonicated for a further several minutes for completeness. Formulations were then stored at specified temperatures and assessed periodically. All solutions were prepared in duplicate. 10% w/w ethanol : 90% w/w HFA 134(a) formulations were prepared. This is in no way intended to limit the extent of the formulations. Solutions were tested for particle size using a cascade impactor, which to that practitioner skilled is standardised method for determining particle size distributions, under conditions of thermal and environmental control. Figures 9-12 illustrate the invention from particle size results. […] It is therefore an embodiment to use derivatives to utilise derivatives not known to optimise deposition.

[3] = Stability of ethanol / HFA 134(a) pMDI formulations in plastic coated glass bottles; settings: ethanol co-solvent in HFA 134(a); equivalent to 100mcg of free base per actuation
Source text: The solid compound is then isolated by a suitable method. Figures 3 and 4 indicates the solubility profiles of the respective salts synthesised. […] The mass of derivative was formulated at a level to give an equivalent to 100mcg of free base per actuation from the metering valve. Results from the formulations are depicted in figure 5 for the maleate salt 6 for the oleate salt and 7 to illustrate the precipitation technique by 7 controlled precipitation by the use of a second antisolvent: water on formulations of salbutamol maleate. […] Skilled artisans may endeavour to include surfactants or further co-solvents to enhance solubility. Such excipients may include but not be limited to conventional surfactants: Brij's Tween's lecithins polyvinylpyrollidone and those described in suitable pharmaceutical excipients handbooks. Figures 5, 6 (maleate salt side and plan views) and 7 (oleate salt arrows indicate crystals) illustrate 134(a) as an antisolvent as the drug […] from solution. The particle size of each drug is different, which leads to an embodiment of invention: use of derivative, co-solvent level, excipients level and antisolvent concentrations to precipitate actives to a desired particle size by careful moderation of the components. […] Formulations were then stored at specified temperatures and assessed periodically. […]

[4] = Morphology of particles deposited from pMDI (SEM, impactor plate); settings: lab ambient, without a liquid air interface

Row | Substance | solubility in ethanol [1] | behaviour of the salt in ethanol solution (stable or precipitates) ([1]; ethanol reaction solution) | %Deposited at Location ACTUATOR ([2]; HT/HRH) | %Deposited at Location FPF ([2]; HT/HRH) | %Deposited at Location THROAT ([2]; HT/HRH) | %Deposited at Location ACTUATOR ([2]; HT/LRH) | %Deposited at Location FPF ([2]; HT/LRH) | %Deposited at Location THROAT ([2]; HT/LRH) | %Deposited at Location ACTUATOR ([2]; LT/HRH) | %Deposited at Location FPF ([2]; LT/HRH) | %Deposited at Location THROAT ([2]; LT/HRH) | %Deposited at Location ACTUATOR ([2]; LT/LRH) | %Deposited at Location FPF ([2]; LT/LRH) | %Deposited at Location THROAT ([2]; LT/LRH) | co-solvent level at which stable solution formulations achievable [3] | particle morphology on deposition [4]
1 | Salbutamol cis-butenedioate (Maleate) | ethanol soluble | stable as a solution in ethanol, even at ultra low temperatures | 27.35% | 57.42% | 11.78% | 22.00% | 63.24% | 12.74% | 16.33% | 52.88% | 25.96% | 8.97% | 42.76% | 44.24% | 15 % w/w | 
2 | Salbutamol cis-octadecenoate (Oleate) |  |  | 20.37% | 67.00% | 7.52% | 16.74% | 67.87% | 7.70% | 19.54% | 67.43% | 8.82% | 6.86% | 72.33% | 17.29% | 30 % w/w | spread as a surfactant
3 | salbutamol fumarate | NB the Fumarate was insoluble in ethanol even though its only difference to the maleate was the trans arrangement of the carboxylic acid groups. |  |  |  |  |  |  |  |  |  |  |  |  |  |  | 
